Experiment: gradient 5% acetonitrile 3 min, to 50% in 2 min, to 85% in 15 min, held 3 min, 100 µL/min
Conditions: column: Zorbax Extend-C18 2.1 x 50 mm; eluents: water / acetonitrile, 0.1% formic acid
How it was run: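 Retention times come from adduct peaks that were picked computationally and then checked by hand. The standards, pure and pooled in mixtures of ~100 molecules, were run on a Zorbax Extend-C18 column (2.1 × 50 mm, 1.8 μm) at 100 μL/min with water and acetonitrile, each with 0.1% formic acid. Detection was by quadrupole time-of-flight mass spectrometry in positive and negative ionization mode, with a dead volume of 40 μL and a dwell volume of 900 μL.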

RP-LC retention time [s]	Compound
794	CCOC(=O)c1c(C)[nH]c(C)c1S(=O)(=O)N1CCC(C(=O)NCCc2sccc2C)CC1
670	CCOC(=O)N1CCN(c2nc(Nc3ccc(OC)cc3)c3nccnc3n2)CC1
682	CCCN1C(=O)c2cccnc2Sc2cc(C(=O)N3CCOCC3)ccc21
579	CCC1CCCCN1CCCNC(=O)C1CCN(c2ncnc3onc(C)c23)CC1 (configuration not stated)
609	O=C(NCCCN1CCCCCC1)c1ccc2c(c1)NC(=O)C1CCCCN21 (configuration not stated)
905	O=C(Nc1ccc2c(c1)OCCO2)C1CCCN(S(=O)(=O)Cc2ccc(F)cc2)C1 (configuration not stated)
672	CC(=O)N1CCc2ccccc2C1C(=O)NC(C)C (configuration not stated)
1300	Cc1ccc(-n2nc(C)c3sc(N4CCCC(C(=O)NC(C)CCc5ccccc5)C4)nc32)cc1 (configuration not stated)
580	CCn1ccc(C(=O)N2C[C@@H]3CCCN4CCC[C@@H]([C@H]34)[C@H]2CCCC(=O)N2CCOCC2)n1
845	Cc1cccc(C)c1NC(=O)Cn1c(C)nc2onc(C)c2c1=O
1100	Cc1ccc(-c2noc(CN3N=NC4C(=O)N(c5ccc(C)c(Cl)c5)C(=O)C43)n2)cc1 (configuration not stated)
644	CCN1CCn2cc(C(=O)NCc3ccc(C(C)C)cc3)nc2C1
668	CCC(C)NC(=O)CCc1cc2cc(OC)ccc2[nH]c1=O (configuration not stated)
850	CCc1nc2c(NC(=O)c3ccc(C)c(F)c3)cccn2n1
830	Cc1nc(N2CCCC2)c2c(C(=O)Nc3ccc(C)c(C)c3)c(C)oc2n1
1070	O=C(CN1c2ccccc2NC2=C(C(=O)CCC2)C1c1ccco1)Nc1ccc(F)cc1 (configuration not stated)
829	O=C(Cn1c(=O)c2cc(-c3cccs3)nn2c2ncccc21)NCCc1ccccc1
759	COc1ccc(N2CCN(C(=O)Cn3ccc4c(SCc5ccc(F)cc5)nccc43)CC2)cc1
894	O=C(c1cc(F)ccc1Cl)N1CCN(C(=O)c2nnn3c2COC(c2ccccc2)C3)CC1 (configuration not stated)
769	CCn1ccc2sc(C)c(C(=O)NCc3ccc4c(c3)OCO4)c2c1=O
933	C=CCN(CC=C)c1nc(-c2ccc(Cl)cc2Cl)nc2ccccc12
730	Cc1cc(C)cc(NC(=O)N2CCC(c3nc(C(=O)N(C)C)c(C)o3)CC2)c1

RP-LC retention time [s]	Compound
594	O=C(CN1CCCc2nc(C3CC3)ncc2C1=O)NCCCN1CCCC1=O
525	CN1C(=O)[C@H]2CN(Cc3ccc(N(C)C)cc3)C[C@H]2C1=O
576	O=C(NCCCN1CCN(C2CCCCC2)CC1)c1ccc2c(c1)NC(=O)C1CCCCN21 (configuration not stated)
721	Cc1cc(C(=O)N2CC(C(=O)Nc3cccc(-c4csc(C)n4)c3)C2)no1
699	COCCCNC(=O)C1CCCN(S(=O)(=O)c2ccc(OC)c(OC)c2)C1 (configuration not stated)
1020	CC(C)Cn1ccc2c(cc(C(=O)Nc3ccc(OC(F)(F)F)cc3)n2C)c1=O
882	COc1ccccc1N1CCN(Cc2nc(-c3ccc(N4CCC(C)CC4)nc3)no2)CC1
765	CCN(CC)CCSC(=O)C(c1ccccc1)c1ccccc1
1010	c1ccc(-n2nnnc2-c2cccc3ccccc23)cc1
628	O=C(Cc1ccccc1Cl)N1CCN(c2ccc3nncn3n2)CC1
774	COc1ccc(NC(=O)C2CCN(S(=O)(=O)c3ccc4[nH]c(=O)sc4c3)CC2)c(OC)c1
1190	Cc1ccc(C)c(-c2coc(-c3ccc(NC(=O)NCc4cccc(F)c4)cc3)n2)c1
856	CSc1ccc(NS(=O)(=O)c2cc3c(s2)CCN(C(=O)C2CC2)C3)cc1
856	O=C(NCCC1CCN(S(=O)(=O)c2ccccc2)CC1)Nc1ccccc1
664	CN1CCN(c2ccc(CNC(=O)C3CCCN(c4nccnc4Oc4ccccc4)C3)cc2)CC1 (configuration not stated)
844	Cc1cc(N2CCN(S(=O)(=O)c3cccc(Cl)c3)CC2)nc(NC2CCCCC2)n1
1010	Cc1nnc(-c2coc(S(=O)(=O)N3CCC(Cc4ccccc4)CC3)c2)o1
553	COc1nn(C)cc1C(=O)N1CCC(C(=O)NCC2CCCO2)CC1 (configuration not stated)
592	Cc1c(Cl)cccc1NC(=O)N1CCc2nc[nH]c2C1
651	O=C(Cn1nc2n(c1=O)CCCC2)Nc1ccc(F)cc1
839	COc1ccc(N2CC(c3noc(-c4ccc(OC)c(OC)c4)n3)CC2=O)cc1 (configuration not stated)
980	COc1nn(C)cc1C(=O)Nc1cc(C(F)(F)F)ccc1Cl

RP-LC retention time [s]	Compound
600	COc1cc([C@@H]2c3cc4c(cc3[C@H](O)[C@@H](CO)[C@@H]2C(=O)N2CCN(C)CC2)OCO4)cc(OC)c1OC
732	O=C(NCCS(=O)(=O)N1CCc2ccccc2C1)C1CC(=O)N(c2ccc(F)cc2)C1 (configuration not stated)
876	COc1ccc(C)cc1NC(=O)N1C[C@H](c2nc(-c3ccncc3)no2)[C@@H](C)C1
973	O=C(c1cn(-c2cc(N3CCCCC3)ncn2)cn1)N1CCc2ccccc2C1
658	O=C(NCc1ccc(F)cc1)N1CCC(OC2CCN(Cc3ccccc3)CC2)CC1
646	O=C(NC1CCCCCCC1)C1CCCN(C(=O)c2cc(-c3ccncc3)n[nH]2)C1 (configuration not stated)
656	COCc1nc(-c2ccc(OC3CN(Cc4ccsc4)C3)cc2)no1
1130	O=S(=O)(c1ccc(F)c(Cl)c1)N1CCc2nc(-c3ccccc3)ncc2C1
954	COc1ccccc1OCC(=O)N1CCc2cc(-c3csc(C)n3)ccc21
1090	Cc1cccc(N2CCN(C(=O)C3CCCN(c4ncnc5c4nc4n5CCCCC4)C3)CC2)c1C (configuration not stated)
803	CNC(=O)c1oc2ccccc2c1NC(=O)C1CCC1
838	O=C(Cc1cc(-c2ccco2)on1)Nc1ccc(F)c(F)c1F
608	Cc1cnc(Nc2ccc(N3CCN(C)CC3)cc2)nc1Nc1cccc(S(=O)(=O)NC(C)(C)C)c1
707	COCc1nc2ccccc2n1CC(=O)N(c1ccccc1)C(C)C
883	O=C(NC1CCCCC1)c1nc(Nc2ccc(F)cc2)c2ccccc2n1
804	CC(C)CCNC(=O)Cn1ccn2nc(-c3ccc(F)cc3)c(CO)c2c1=O
994	COc1cc2c(cc1OC)C(C(=O)NC1CCCCC1)C(c1cccnc1)N(C)C2=O (configuration not stated)
796	Cn1nc(C(=O)N2CCCC(C(=O)Nc3ccccc3)C2)c2c1CCN(C(=O)C1CCCCC1)C2 (configuration not stated)
601	CS(=O)(=O)N1CCN(C(=O)Cc2csc(Nc3ncccn3)n2)CC1
584	Cn1cc(CN2CCC(C(=O)N3CCN(c4ccccn4)CC3)CC2)c2cc(Cl)ccc21
566	CCN(CC)CCNCc1ccc(-c2ccc(OC)c(Cl)c2)o1
842	COCCN1C(=O)c2ccccc2C(C(=O)Nc2nc(C)c(C)s2)C12CCCC2 (configuration not stated)

RP-LC retention time [s]	Compound
759	CSc1ccc(CNC(=O)c2cccc(-c3nc4cccnc4n3C)c2)cc1
592	CC1CCc2nn(CC(=O)NCCCN(Cc3ccccc3)C(C)C)cc2C1 (configuration not stated)
784	COc1ccc(CC(=O)NC(CC(C)C)C(=O)Nc2nc3ccccc3[nH]2)c(Cl)c1 (configuration not stated)
660	COCCN(CCNC(=O)c1cc(-c2ccccn2)nc2ccccc12)Cc1ccco1
742	CCn1cnc2ccc(-c3noc(Cc4ccc(F)cc4)n3)cc21
927	CC(C)NC(=O)C1CCN(c2nc3ccc(-c4ccccc4)nc3s2)CC1
747	Cc1ccc(C)c(CN2CCn3c(nn(C)c3=O)C2)c1
1150	CCc1csc(-c2ccc(S(=O)(=O)NC(CC)c3cccs3)s2)n1 (configuration not stated)
1130	COc1ccc(N2CCN(c3cc(SCC(=O)Nc4cc(F)ccc4F)ncn3)CC2)cc1
588	CSc1ccccc1CN1CCC(CNC(=O)C2(c3ccccc3)CCOCC2)CC1
1320	CCc1ccc(NC(=O)Cc2c(C)nn(-c3nc(-c4ccc(C)cc4)cs3)c2C)cc1
750	O=C(NCc1ccc2c(c1)OCO2)C1CCCN(c2ncnc3c2nc2n3CCCCC2)C1 (configuration not stated)
875	CCc1noc(NC(C)=O)c1-c1ccc(C)c(S(=O)(=O)Nc2ccc(F)c(Cl)c2)c1
894	CC(C)(C)NC(=O)N1CCCC1c1noc(COc2ccc(F)cc2)n1 (configuration not stated)
622	O=C(Nc1ccccc1)N1C[C@H]2C[C@H](C1)[C@H]1CCCC(=O)N1C2
667	Cn1cc(-c2cc3n(n2)CCC(=O)N3CC(=O)NCC2COCCO2)c2ccccc21 (configuration not stated)
1090	O=S(=O)(c1ccc(-c2noc(-c3cccc(F)c3)n2)cc1)N1CCOCC1
553	CCOC(=O)N1CCN(C(=O)Cn2c(-c3cccn(C)c3=O)nc3ccccc32)CC1
574	O=C(c1c(F)cccc1Cl)N1CCN(c2nccn2-c2ccccc2F)CC1
634	Cc1ccccc1-c1ccc(N2CCC(C(=O)Nc3ccc4c(c3)OCCO4)CC2)nn1
920	CCc1nnc(-c2ccc(S(=O)(=O)N3CCC(C)CC3)o2)o1

— the METLIN SMRT retention time set (Domingo-Almenara et al. 2019)
